Test [1] concerns Staphylococcus aureus. Kind of test: Antibacterial activity against methicillin-resistant Staphylococcus aureus ATCC 33591 in presence of Zn2+ (reference value: 1 ug/ml). It is filed as functional.
Test [2] deals with Staphylococcus aureus. Kind of test: Antibacterial activity against methicillin-resistant Staphylococcus aureus CGMCC1.12409 in presence of Fe3+ (reference value: 0.5 ug/ml). It is filed as functional.
For test [3], the system named is Staphylococcus aureus. Nature of the test: Antibacterial activity against methicillin-resistant Staphylococcus aureus CGMCC1.12409 infected in mouse model assessed as reduction in inflammation in skin tissues at 5 to 10 mg/kg measured for 5 days by H and E staining based analysis. It is filed as functional, organism-based. The conditions noted are these: dose 5-10 mg/kg, time 5.0 day.

Test [4] concerns Staphylococcus aureus. Kind of test: Antibacterial activity against methicillin-resistant Staphylococcus aureus ATCC 43300 in presence of Zn2+ (reference value: 0.5 ug/ml). In kind it is functional.

As a reminder, the MIC is the smallest concentration in the dilution series that meets the test's criterion for growth inhibition.

Activity calls are given as the source filed them.

On to `COc1ccc2[nH]c3c(CC[C@H](C)[C@H]4CC[C@H]5[C@@H]6[C@H](O)C[C@@H]7C[C@H](O)CC[C@]7(C)[C@H]6C[C@H](O)[C@]45C)[n+](Cc4ccc(Cl)cc4)ccc3c2c1.[Br-]`, for which the MIC in the test on Staphylococcus aureus [1] is 1 µg/mL; in the test with Staphylococcus aureus [2] it was 1 µg/mL; in the test with Staphylococcus aureus [4], 0.5 µg/mL. Besides, in the test with Staphylococcus aureus [3], the outcome was Active.

These data come from ChEMBL document CHEMBL6078723, “Novel steroidal β-carboline derivatives as promising antibacterial candidates against methicillin-resistant Staphylococcus aureus” (Eur J Med Chem, 2025).
